In patent publication US20110105434A1, “2-AMINO PURINE DERIVATIVES AND THEIR USE AS ANTI-HERPETIC AGENTS” (priority 2007, published 2011):

System: patient with Prinzmetal's angina
Experiment: Prinzmetal's angina chest pain and blood pressure
Assay type: in vivo, human
Details: 300 mg/kg per day
Procedure: Another effect of the treatment of this invention was reduction in chest pain. A patient with an autoimmune disease was experiencing severe chest pains or Prinzmetal's angina—a coronary artery spasm and associated cardiac ischemia. After taking high doses of anti-herpes drugs, but no drugs specifically for the heart, the patient reported a marked reduction in the symptoms of Prinzmetal's angina, specifically, 95% reduction in pain at 300 mg/kg of famciclovir per day.

CC(=O)OCC(CCn1cnc2cnc(N)nc21)COC(C)=O [famciclovir, 2-amino-9-(4-acetoxy-3-acetoxymethylbut-1-yl)purine]
reduction in pain of Prinzmetal's angina: 95% | elevated blood pressure (blood pressure lowering medication reduced to a minimum): no hypertension
